From US11726087B2, “Methods, compositions, and kits for detection of aspergillosis” (priority 2013, dated 2023)
“Also recorded” adds a separate entry of the source. Positions of bridges follow the written chain, without caps; N, C: chain ends. Non-standard residues stand in square brackets, D forms with d. Residues, ends and D or L forms follow the SMILES beside them. No end group written: not given here. *: point of attachment. 5FAM = O=C1OC2(c3ccc(O)cc3Oc3cc(O)ccc32)c2ccc(C(=O)*)cc21; DABCYL = 4-(dimethylaminoazo)benzene-4-carboxy; Sta = CC(C)C[C@H](N)[C@@H](O)CC(=O)O; Isovaleryl = CC(C)CC(=O)*

Legend:
Assay type in all cases: biochemical, A. fumigatus
native Asp f2 [1] = biological target: T1, native Asp f2 (Aspergillus fumigatus, UniProt P79017); conditions: for effect of protease inhibitors on proteolytic activity of native Asp f2: 50 μM inhibitor, FluHSA2 substrate
T1 construct: beads were incubated with native or recombinant Asp f2; endogenous in cells; host or cells: Aspergillus fumigatus (preparation of the native protein not described for this assay)
Method: (§1) A novel bead-based assay was developed for detecting Asp f2 proteolytic activity. […] Cyanogen bromide (CNBr)-activated sepharose beads were swelled in ice-cold HCl (1 mM). Beads (1.0 g) were incubated with 3.0 mg of 5D7A1 in Coupling Buffer (NaHCO3, 0.1 M and NaCl, 0.5 M, pH 8.3-8.5) and rotated for two hours at 22° C. or for 16 hours at 4° C. Beads were blocked with 0.1 M ethanolamine, pH 8.0, then washed with buffers of alternating pH (first with Coupling Buffer, pH 8.5, then with a low pH buffer (sodium acetate, 0.1 M, NaCl, 0.5 M, pH 4.0)). These dual washes were repeated four times. Lastly, beads were resuspended in ammonium bicarbonate (100 mM), lyophilized and stored at 4° C.
(§2) FluHSA2 comprises the peptide of SEQ ID NO:5 conjugated to 5-Fam at the alpha-amino group of the threonine at the N-terminus of the peptide and to DABCYL at the epsilon amino group of the lysine side chain at the C-terminus of the peptide. Upon excitation, the DABCYL suppresses the fluorescence emission of the 5-Fam labeled peptides when the peptides are not cleaved and the fluorescent label and DABCYL remain close together. However, when the peptide is cleaved by Asp f2, the fluorescent label and DABCYL are separated and the fluorescent label emits light energy upon excitation. For each replicate (including negative controls), 100 μL of the antibody coupled bead suspension was transferred into 0.5 mL reaction buffer (FluHSA2 (FIG. 4-5; SEQ ID NO: 5), […] sodium phosphate, 25 mM, NaCl, 100 mM, pH 7.2. Tubes were incubated in the dark for two hours at 37° C. or for 16 hours at 22° C. on a rotary shaker at 250 rpm. Fluorescence was measured at Excitation (Ex) 485 nm/Emission (Em) 535 nm in a black 96-well micro titer plate.
(§3) Diethylpyrocarbonate (DEPC) derivatization of histidines results in the chemical modification of histidines in proteins and is used to study the importance of histidyl residues in enzymes. Using the materials and methods described in Example 1, anti-Asp f2 (5D7A1)-bound beads were incubated with native or recombinant Asp f2 in the presence or absence of DEPC (30 μM) and incubated for one hour at 22° C. prior to reaction with FluHSA2. Samples were then incubated with 10 μM of FluHSA2 for 16 hours at 22° C. and fluorescence was measured as described above. Cleavage of FluHSA2 was detected in the presence or absence of DEPC to test the proteolytic activity of native and recombinant Asp f2.
Anti-Asp f2 (5D7A1)-bound beads were incubated with native or recombinant Asp f2 in the presence or absence of 0.5 mM zinc chloride or 50 μM of various inhibitors. Samples were incubated with FluHSA2 and fluorescence was measured as described above. […] Various Asp f2 histidine residues, including those located in the ^186HRLYH motif, were mutated to alanine (FIG. 12; H186A and H190A are located in the HRLYH motif), and mutant or wild-type Asp f2 was incubated with anti-Asp f2 (5D7A1)-bound beads as described above, followed by incubation with FluHSA2.

recombinant Asp f2 = biological target: T2, recombinant Asp f2 (Aspergillus fumigatus, UniProt P79017); conditions: for effect of protease inhibitors on proteolytic activity of recombinant Asp f2: 50 μM inhibitor, FluHSA2 substrate
T2 construct: region fused to Asp f2 residues 32-310 (codon optimized for expression in E. coli); Trx-SMT3 N-terminal linker (thioredoxin, His6 tags, SMT3) (N, cleaved yes); made in house; host or cells: Escherichia coli
Method: as §1, §2
The fusion protein comprised an N-terminal linker (Trx-SMT3 N-terminal linker) region fused to Asp f2 residues 32-310 (codon optimized for expression in E. coli; FIG. 14) via a Ubiquitin-like-specific protease 1 (ULP1) cleavage site located between SMT3 and Asp f2. The Trx-SMT3 N-terminal linker contained the following from N- to C-terminus: thioredoxin (Trx)-glycine-serine-linker-His6-tag-linkers-another His6-tag-SMT3. Trx was added to improve solubility of the construct and a yeast SUMO (Smt3) was added to help enhance expression and promote solubility of Asp f2. Following purification using a His6-tag specific nickel-NTA column, Asp f2 was activated by cleaving the Trx-SMT3 N-terminal linker off using UPL1.
as §3
Anti-Asp f2 (5D7A1)-bound beads were incubated with native or recombinant Asp f2 in the presence or absence of 0.5 mM zinc chloride or 50 μM of various inhibitors. Samples were incubated with FluHSA2 and fluorescence was measured as described above.

native Asp f2 [2] = biological target: T1, native Asp f2; experiment: Cleavage of fluorogenic substrates by bead-bound native Asp f2
Method: Cleavage specificity of the novel FluHSA peptide was tested using Asp f2 and another Aspergillus protein, Asp f3. CNBr-activated sepharose beads were prepared as described in Example 1 and incubated with either the anti-Asp f2 monoclonal antibody 5D7A1 or an anti-Asp f3 rabbit polyclonal antibody. Anti-Asp f2-immobilized beads were incubated with native Asp f2 and anti-Asp f3-immobilized beads were incubated with native Asp f3. Samples were incubated with FluHSA2 (10 μM) for 16 hours at 22° C. Fluorescence was measured at Ex 485 nm/Em 535 nm in a black 96-well micro titer plate as described above.
The cleavage products of FluHSA2 after reaction with native Asp f2 were investigated by mass spectrometric analysis (MALDI spectra) (FIG. 5). Cleavage by Asp f2 occurred in the C-terminal linear tail section of the peptide resulting in at least 5 cleavage products (FIG. 5).
Peptides other than FluHSA2 were tested for cleavage by Asp f2.

[3] = DEPC 30 μM, one hour at 22° C. before FluHSA2 10 μM, 16 hours at 22° C.

T2 sequence (P79017 32-310): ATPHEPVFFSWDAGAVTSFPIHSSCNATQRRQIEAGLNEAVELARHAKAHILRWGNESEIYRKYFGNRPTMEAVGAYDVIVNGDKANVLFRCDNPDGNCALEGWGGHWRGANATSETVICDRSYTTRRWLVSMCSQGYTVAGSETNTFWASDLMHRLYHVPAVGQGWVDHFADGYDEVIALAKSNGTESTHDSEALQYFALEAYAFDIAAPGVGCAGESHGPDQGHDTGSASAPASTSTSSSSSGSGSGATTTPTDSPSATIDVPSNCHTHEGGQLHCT
T1 sequence (P79017 32-310): as above

c1ccc(CN(CCN(Cc2ccccn2)Cc2ccccn2)Cc2ccccn2)nc1 [TPEN, N,N,N′,N′-tetrakis (2-pyridylmethyl) ethylenediamine]
effect of protease inhibitors on proteolytic activity of native Asp f2 (native Asp f2 [1]): suppressed | effect of protease inhibitors on proteolytic activity of recombinant Asp f2 (recombinant Asp f2): suppressed

c1cnc2c(c1)ccc1cccnc12 [1-10-phenanthroline]
effect of protease inhibitors on proteolytic activity of native Asp f2 (native Asp f2 [1]): suppressed | effect of protease inhibitors on proteolytic activity of recombinant Asp f2 (recombinant Asp f2): suppressed

soybean trypsin inhibitor [SBTI]
effect of protease inhibitors on proteolytic activity of native Asp f2 (native Asp f2 [1]): did not inhibit | effect of protease inhibitors on proteolytic activity of recombinant Asp f2 (recombinant Asp f2): did not inhibit

[5-Fam]-TKCATESAVNRRPCFSALK-[DABCYL] (5FAM-TKCATESAVNRRPCFSALK(DABCYL); disulfide 3-14 (inferred)) [FluHSA2]
number of cleavage products after reaction with native Asp f2 (MALDI) (native Asp f2 [2]): at least 5 | specificity of cleavage by Asp f2 compared with Asp f3 (native Asp f2 [2]; FluHSA2 10 μM, 16 hours at 22° C.): high specificity for cleavage by Asp f2 | number of cleavage sites on reaction with native Asp f2 (MALDI) (native Asp f2 [2]; sites near the C-terminus): four

CC(C)CC(=O)N[C@H](C(=O)N[C@H](C(=O)N[C@@H](CC(C)C)[C@@H](O)CC(=O)N[C@@H](C)C(=O)N[C@@H](CC(C)C)[C@@H](O)CC(=O)O)C(C)C)C(C)C [pepstatin A] (Isovaleryl-VV[Sta]A[Sta]-OH)
effect of protease inhibitors on proteolytic activity of native Asp f2 (native Asp f2 [1]): did not inhibit | effect of protease inhibitors on proteolytic activity of recombinant Asp f2 (recombinant Asp f2): did not inhibit

NC(=O)CI [IAA, iodoacetamide]
effect of protease inhibitors on proteolytic activity of native Asp f2 (native Asp f2 [1]): did not inhibit | effect of protease inhibitors on proteolytic activity of recombinant Asp f2 (recombinant Asp f2): did not inhibit

collagen
degradation of fluorogenic protein substrate by native Asp f2 (native Asp f2 [2]; 15 μg/mL, Asp f2 enriched on 5D7A1 beads): capable of degrading

O=C(O)CN(CCN(CC(=O)O)CC(=O)O)CC(=O)O [EDTA, ethylenediaminetetraacetic acid]
effect of protease inhibitors on proteolytic activity of native Asp f2 (native Asp f2 [1]): suppressed | effect of protease inhibitors on proteolytic activity of recombinant Asp f2 (recombinant Asp f2): suppressed

CCOC(=O)OC(=O)OCC [DEPC, Diethylpyrocarbonate]
proteolytic activity of native Asp f2 (cleavage of FluHSA2) in the presence of DEPC (native Asp f2 [1]; [3]): inhibited; also recorded: inactive in the presence of DEPC | proteolytic activity of recombinant Asp f2 (cleavage of FluHSA2) in the presence of DEPC (recombinant Asp f2; [3]): inhibited; also recorded: inactive in the presence of DEPC

aprotinin
effect of protease inhibitors on proteolytic activity of native Asp f2 (native Asp f2 [1]): did not inhibit | effect of protease inhibitors on proteolytic activity of recombinant Asp f2 (recombinant Asp f2): did not inhibit

O=S(=O)(F)Cc1ccccc1 [PMSF, phenylmethanesulfonylfluoride]
effect of protease inhibitors on proteolytic activity of native Asp f2 (native Asp f2 [1]): did not inhibit | effect of protease inhibitors on proteolytic activity of recombinant Asp f2 (recombinant Asp f2): did not inhibit
